Assay results taken from patent US9765092B2, “Tricyclic piperidine compounds” (ACTELION PHARMACEUTICALS LTD, priority 2013, dated 2017).

Molecular target: human TPH1 (Homo sapiens (Human), UniProt P17752)
Assay: Biochemical in vitro assay using fluorescence readout (TPH1 inhibition)
[1] = human TPH1, fluorescence readout

Sequence of human TPH1 (P17752 whole entry): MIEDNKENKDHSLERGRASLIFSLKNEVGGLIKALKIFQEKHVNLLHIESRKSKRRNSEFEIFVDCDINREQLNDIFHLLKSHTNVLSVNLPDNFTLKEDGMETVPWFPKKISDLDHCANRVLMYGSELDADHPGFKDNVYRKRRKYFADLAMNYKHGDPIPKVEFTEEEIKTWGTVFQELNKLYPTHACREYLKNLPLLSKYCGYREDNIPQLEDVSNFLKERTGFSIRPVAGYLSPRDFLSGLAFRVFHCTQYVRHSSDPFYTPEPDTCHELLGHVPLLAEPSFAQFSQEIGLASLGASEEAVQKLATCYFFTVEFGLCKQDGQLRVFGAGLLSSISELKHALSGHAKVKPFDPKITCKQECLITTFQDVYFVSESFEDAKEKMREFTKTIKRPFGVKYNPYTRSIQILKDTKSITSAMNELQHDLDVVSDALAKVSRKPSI

Compound	IC50 [1] [µM]	IC50 (full length human TPH1, 40 μM L-tryptophan, 15° C., 60 minutes, fluorescence at 540 nm, mean if determined several times) [µM]
CC(=O)Nc1ccc(C2c3c(nc4sc(C)nn34)CCN2C(=O)COc2ccc(N3CCOCC3)nc2Cl)s1 (centres unmarked) [Example 1.13.1, N-(5-(6-(2-((2-chloro-6-morpholinopyridin-3-yl)oxy)acetyl)-2-methyl-5,6,7,8-tetrahydro-[1,3,4]thiadiazolo [2′,3′:2,3]imidazo[4,5-c]pyridin-5-yl)thiophen-2-yl)acetamide]	0.054	–
Cc1cc(Cl)ccc1OCC(=O)N1CCc2nc3sccn3c2C1c1cccnc1F (centres unmarked) [Example 6.2.5, 2-(4-chloro-2-methylphenoxy)-1-(5-(2-fluoropyridin-3-yl)-7,8-dihydrothiazolo[2′,3′:2,3]imidazo[4,5-c]pyridin-6(5H)-yl)ethanone]	0.026	–
1-(5-(4-chloro-2-fluorophenyl)-7,8-dihydrothiazolo[2′,3′:2,3]imidazo[4,5-c]pyridin-6(5H)-yl)-2-(2-ethyl-4-fluorophenoxy)ethanone [Example 6.4.1]	0.014	–
Cc1cnc(C2c3c(nc4sc(C)nn34)CCN2C(=O)COc2ccc(C#N)nc2Cl)c(F)c1 (centres unmarked) [Example 1.31.3, 6-chloro-5-(2-(5-(3-fluoro-5-methylpyridin-2-yl)-2-methyl-7,8-dihydro-[1,3,4]thiadiazolo[2′,3′:2,3]imidazo[4,5-c]pyridin-6(5H)-yl)-2-oxoethoxy)picolinonitrile]	0.036	–
Cc1nn2c3c(nc2s1)CCN(C(=O)COc1ccc(-c2ncco2)nc1Cl)[C@H]3c1sccc1F [Example 1.23.15, (R)-2-((2-chloro-6-(oxazol-2-yl)pyridin-3-yl)oxy)-1-(5-(3-fluorothiophen-2-yl)-2-methyl-7,8-dihydro-[1,3,4]thiadiazolo[2′,3′:2,3]imidazo[4,5-c]pyridin-6(5H)-yl)ethanone]	0.02	–
CN1CCN(c2ccc(OCC(=O)N3CCc4nc5sc(C6CC6)nn5c4C3c3ccc(Cl)cc3F)c(Cl)n2)CC1 (centres unmarked) [Example 4.1.4, 1-(5-(4-chloro-2-fluorophenyl)-2-cyclopropyl-7,8-dihydro-[1,3,4]thiadiazolo[2′,3′:2,3]imidazo[4,5-c]pyridin-6(5H)-yl)-2-((2-chloro-6-(4-methylpiperazin-1-yl)pyridin-3-yl)oxy)ethanone]	0.012	–
Cc1cnc(C2c3c(nc4sc(C)nn34)CCN2C(=O)COc2ccc(NS(C)(=O)=O)cc2Cl)c(F)c1 (centres unmarked) [Example 1.31.10, N-(3-chloro-4-(2-(5-(3-fluoro-5-methylpyridin-2-yl)-2-methyl-7,8-dihydro-[1,3,4]thiadiazolo[2′,3′:2,3]imidazo[4,5-c]pyridin-6(5H)-yl)-2-oxoethoxy)phenyl)methanesulfonamide]	0.011	–
Cc1cnc(C2c3c(nc4sc(C)nn34)CCN2C(=O)COc2ccc(C(F)(F)F)cc2Cl)c(F)c1 (centres unmarked) [Example 1.31.1, 2-(2-chloro-4-(trifluoromethyl)phenoxy)-1-(5-(3-fluoro-5-methylpyridin-2-yl)-2-methyl-7,8-dihydro-[1,3,4]thiadiazolo [2′,3′:2,3]imidazo[4,5-c]pyridin-6(5H)-yl)ethanone]	0.014	–
COCCOc1ccc(C2c3c(nc4sc(C)nn34)CCN2C(=O)COc2ccc(C(=O)NC3CC3)nc2Cl)c(F)c1 (centres unmarked) [Example 1.83.1, 6-chloro-N-cyclopropyl-5-(2-(5-(2-fluoro-4-(2-methoxyethoxy)phenyl)-2-methyl-7,8-dihydro-[1,3,4]thiadiazolo[2′,3′:2,3]imidazo[4,5-c]pyridin-6(5H)-yl)-2-oxoethoxy)picolinamide]	0.024	–
Cc1nn2c3c(nc2s1)CCN(C(=O)COc1ccc(C(=O)N(C)C)nc1Cl)C3c1ccc(OC(F)F)cc1F (centres unmarked) [Example 1.54.1, 6-chloro-5-(2-(5-(4-(difluoromethoxy)-2-fluorophenyl)-2-methyl-7,8-dihydro-[1,3,4]thiadiazolo[2′,3′:2,3]imidazo[4,5-c]pyridin-6(5H)-yl)-2-oxoethoxy)-N,N-dimethylpicolinamide]	0.014	–
Cc1nn2c3c(nc2s1)CCN(C(=O)COc1ccc(C#N)nc1Cl)C3c1ccc(C2CC2)cc1F (centres unmarked) [Example 1.6.23, 6-chloro-5-(2-(5-(4-cyclopropyl-2-fluorophenyl)-2-methyl-7,8-dihydro-[1,3,4]thiadiazolo[2′,3′:2,3]imidazo[4,5-c]pyridin-6(5H)-yl)-2-oxoethoxy)picolinonitrile]	0.008	–
Cc1nn2c3c(nc2s1)CCN(C(=O)COc1ccc(NS(=O)(=O)C2CC2)nc1Cl)C3c1sccc1F (centres unmarked) [Example 1.23.9, N-(6-chloro-5-(2-(5-(3-fluorothiophen-2-yl)-2-methyl-7,8-dihydro-[1,3,4]thiadiazolo[2′,3′:2,3]imidazo[4,5-c]pyridin-6(5H)-yl)-2-oxoethoxy)pyridin-2-yl)cyclopropanesulfonamide]	0.014	–
Cc1nn2c3c(nc2s1)CCN(C(=O)COc1cccnc1Cl)C3c1sc(C(=O)N(C)C)cc1F (centres unmarked) [Example 1.24.5, 5-(6-(2-((2-chloropyridin-3-yl)oxy)acetyl)-2-methyl-5,6,7,8-tetrahydro-[1,3,4]thiadiazolo[2′,3′:2,3]imidazo[4,5-c]pyridin-5-yl)-4-fluoro-N,N-dimethylthiophene-2-carboxamide]	0.064	–
COCCN(C)c1ccc(OCC(=O)N2CCc3nc4sc(C)nn4c3C2c2ccc(Cl)cc2F)c(Cl)n1 (centres unmarked) [Example 1.4.14, 1-(5-(4-Chloro-2-fluorophenyl)-2-methyl-7,8-dihydro-[1,3,4]thiadiazolo[2′,3′:2,3]imidazo[4,5-c]pyridin-6(5H)-yl)-2-((2-chloro-6-((2-methoxyethyl)(methyl)-amino)pyridin-3-yl)oxy)ethanone]	–	0.003
Cc1nn2c3c(nc2s1)CCN(C(=O)COc1ccnc2c(C)c(Cl)ccc12)C3c1ccc(Cl)cc1F (centres unmarked) [Example 1.4.64, 1-(5-(4-chloro-2-fluorophenyl)-2-methyl-7,8-dihydro-[1,3,4]thiadiazolo[2′,3′:2,3]imidazo[4,5-c]pyridin-6(5H)-yl)-2-((7-chloro-8-methylquinolin-4-yl)oxy)ethan-1-one]	0.255	–
Cc1cc(Cl)ccc1OCC(=O)N1CCc2nc3sccn3c2C1c1c(C)nn(C)c1C (centres unmarked) [Example 6.15.3, 2-(4-chloro-2-methylphenoxy)-1-(5-(1,3,5-trimethyl-1H-pyrazol-4-yl)-7,8-dihydrothiazolo[2′,3′:2,3]imidazo[4,5-c]pyridin-6(5H)-yl)ethanone]	0.02	–
O=C(COc1ccc(Cl)cc1Cl)N1CCc2nc3sccn3c2C1c1cnn(-c2ccccc2)c1 (centres unmarked) [Example 6.13.2, 2-(2,4-dichlorophenoxy)-1-(5-(1-phenyl-1H-pyrazol-4-yl)-7,8-dihydrothiazolo[2′,3′:2,3]imidazo[4,5-c]pyridin-6(5H)-yl)ethanone]	0.05	–
Cc1ccc(C2c3c(nc4sc(C)nn34)CCN2C(=O)COc2ccc(C(=O)N(C)C3CC3)nc2Cl)c(F)c1 (centres unmarked) [Example 1.53.3, 6-chloro-N-cyclopropyl-5-(2-(5-(2-fluoro-4-methyl-phenyl)-2-methyl-7,8-dihydro-[1,3,4]thiadiazolo-[2′,3′:2,3]imidazo[4,5-c]pyridin-6(5H)-yl)-2-oxoethoxy)-N-methylpicolinamide]	0.015	–
CNC(=O)c1ccc(OCC(=O)N2CCc3nc4sc(C)nn4c3C2c2ncccc2F)c(Cl)n1 (centres unmarked) [Example 1.35.3, 6-chloro-5-(2-(5-(3-fluoropyridin-2-yl)-2-methyl-7,8-dihydro-[1,3,4]thiadiazolo[2′,3′:2,3]imidazo[4,5-c]pyridin-6(5H)-yl)-2-oxoethoxy)-N-methylpicolinamide]	0.029	–
Cc1nn2c3c(nc2s1)CCN(C(=O)COc1ccc(C#N)cc1Cl)C3c1ccc(Cl)cc1F (centres unmarked) [Example 1.4.24, 3-chloro-4-(2-(5-(4-chloro-2-fluorophenyl)-2-methyl-7,8-dihydro-[1,3,4]thiadiazolo[2′,3′:2,3]imidazo[4,5-c]pyridin-6(5H)-yl)-2-oxoethoxy)benzonitrile]	0.011	–
Cc1cnc([C@H]2c3c(nc4sc(C)nn34)CCN2C(=O)COc2ccc(N3CCCS3(=O)=O)nc2Cl)c(F)c1 [Example 1.31.17, (R)-2-((2-chloro-6-(1,1-dioxidoisothiazolidin-2-yl)pyridin-3-yl)oxy)-1-(5-(3-fluoro-5-methylpyridin-2-yl)-2-methyl-7,8-dihydro-[1,3,4]thiadiazolo[2′,3′:2,3]imidazo[4,5-c]pyridin-6(5H)-yl)ethanone]	0.008	–
Cc1nn2c3c(nc2s1)CCN(C(=O)COc1ccnc2c(F)ccc(F)c12)C3c1ccc(Cl)cc1F (centres unmarked) [Example 1.4.65, 1-(5-(4-chloro-2-fluorophenyl)-2-methyl-7,8-dihydro-[1,3,4]thiadiazolo[2′,3′:2,3]imidazo[4,5-c]pyridin-6(5H)-yl)-2-((5,8-difluoroquinolin-4-yl)oxy)ethan-1-one]	0.031	–
Cc1ncc(OCC(=O)N2CCc3nc4sc(C)nn4c3C2c2ccc(C3CC3)cc2F)c(C)n1 (centres unmarked) [Example 1.6.27, 1-(5-(4-cyclopropyl-2-fluorophenyl)-2-methyl-7,8-dihydro-[1,3,4]thiadiazolo[2′,3′:2,3]imidazo[4,5-c]pyridin-6(5H)-yl)-2-((2,4-dimethylpyrimidin-5-yl)oxy)ethanone]	0.161	–
Cc1nn2c3c(nc2s1)CCN(C(=O)COc1ccc(C#N)nc1Cl)C3c1ccc(Cl)cc1F (centres unmarked) [Example 1.4.9, 6-chloro-5-(2-(5-(4-chloro-2-fluorophenyl)-2-methyl-7,8-dihydro-[1,3,4]thiadiazolo[2′,3′:2,3]imidazo[4,5-c]pyridin-6(5H)-yl)-2-oxoethoxy)picolinonitrile]	0.036	–
CCc1nc(NS(C)(=O)=O)ccc1OCC(=O)N1CCc2nc3sc(C(F)(F)F)nn3c2C1c1ncc(C)cc1F (centres unmarked) [Example 5.2.2, N-(6-ethyl-5-(2-(5-(3-fluoro-5-methylpyridin-2-yl)-2-(trifluoromethyl)-7,8-dihydro-[1,3,4]thiadiazolo[2′,3′:2,3]imidazo[4,5-c]pyridin-6(5H)-yl)-2-oxoethoxy)pyridin-2-yl)methanesulfonamide]	0.042	–
Cc1nn(C)c(C)c1C1c2c(nc3sccn23)CCN1C(=O)COc1ccc(C(F)(F)F)cc1Cl (centres unmarked) [Example 6.15.2, 2-(2-chloro-4-(trifluoromethyl)phenoxy)-1-(5-(1,3,5-trimethyl-1H-pyrazol-4-yl)-7,8-dihydrothiazolo-[2′,3′:2,3]imidazo[4,5-c]pyridin-6(5H)-yl)ethanone]	0.048	–
